Source: patent publication US5304687A, “Morpholinyl derivatives of doxorubicin and process for their preparation” (priority 1989, dated 1994)
≈ marks a conversion by molar mass, not a printed value. Read-outs that look alike come from different tables or passages of the source.

Experiments:
murine mammary carcinoma = assay: Effect on murine mammary carcinoma, iv and oral route; type: in vivo; details: for Tumor Inhibition %: at O.D.
Text: (§1) ^c O.D. = Optimal Dose: maximally tollerated dose.
(§2) Effect of A4 on murine mammary carcinoma.
(§3) ^f iv q4dx4 = treatment iv every four days for four times
(§4) ^g po q4dx4 = oral treatment every four days for four times

P388 Leukemia (Schabel) = assay: Effect on sensitive P388 leukemia (Schabel) in vitro (treatment 1 hr); type: cell-based; details: Mus musculus, read-out: IC50 (concentration inhibiting 50% of cellular survival), P388
Text: (§5) Effect of A4 on sensitive and Doxorubicin-resistant P388
(§6) Leukemia (Schabel) "in vitro" (treatment 1 hr).
(§7) ^c IC50 = concentration inhibiting 50% of cellular survival.

LoVo/Dx resistant cells = assay: cells; type: cell-based; details: for R.I. = Resistance Index = (IC50 LoVo/Dx)/(IC50 LoVo): LoVo/Dx vs LoVo; for IC50: read-out: IC50 (concentration inhibiting 50% of colony growth), LoVo/Dx
Text: (§8) Colony assay test against LoVo and LoVo/Dx resistant cells
(§9) "in vitro" (treatment for 4 hrs)
(§10) ^a IC50 = concentration inhibiting 50% of colony growth
^b R.I. = Resistance Index = (IC50 LoVo/Dx)/(IC50 LoVo)

LoVo = assay: Colony assay test against LoVo cells in vitro (treatment for 4 hrs); type: cell-based; details: Homo sapiens, read-out: IC50 (concentration inhibiting 50% of colony growth), LoVo
Text: The compounds have been tested in several experimental system in order to ascertain their cytotoxicity and antitumor activity in experimental animals in comparison with parent Doxorubicin. The new anthracyclines result more cytotoxic than the parent drug on LoVo and LoVo Doxorubicin-resistant cell line (LoVo/Dx), Table 1, and are active "in vivo" against doxorubicin-resistant cell lines.
as §8, §9, §10

[1] = test system: Doxorubicin-resistant P38B Schabel's Leukemia; assay: in vivo; details: BDF1 mice, P388/Dx Schabel (10^2 cell/mouse), iv on day 1, at O.D.
Text: as §1
(§11) ^d T/C % = Median survival time of treated mice over median survival
(§12) time of controls × 100.

[2] = test system: Doxorubicin-resistant P388 Johnson's Leukemia (P388/Dx); assay: in vivo; details: BDF1 mice bearing P388/Dx Johnson (10^2 cell/mouse), iv on day 1, at O.D.
Procedure: (§13) The primary screening "in vivo" was carried out in BDF1 mice bearing P388 Doxorubicin-resistant Johnson's leukemia (P388/Dx) (10^2 cell/mouse). The drugs were administered iv on day 1 after tumor inoculation.
as §1, §11, §12

[3] = Effect on mammary human carcinoma (MX1), iv and oral route; type: in vivo; details: in vivo, read-out: O.D. = Optimal Dose: maximally tollerated dose
Text: as §1
(§14) Effect of A4 on mammary human carcinoma (MX1).
(§15) ^h iv q7dx3 = treatment iv every seven days for three times
(§16) ^i po q7dx3 = oral treatment every seven days for three times

[4] = test system: mammary human carcinoma (MX1); assay: as above; type: in vivo; details: at O.D.
Text: as §1, §14, §15, §16

[5] = test system: Doxorubicin-resistant P388 Leukemia (Schabel) (P388/Dx); assay: Effect on Doxorubicin-resistant P388 leukemia (Schabel) in vitro (treatment 1 hr); type: cell-based; details: read-out: IC50 (concentration inhibiting 50% of cellular survival), P388/Dx
Text: as §5, §6, §7

in vivo [6] = details: mouse, in vivo, iv
Procedure: as §13, §1, §11, §12

[7] = Effect on murine mammary carcinoma, iv and oral route; type: in vivo; details: mouse, in vivo, read-out: O.D. = Optimal Dose: maximally tollerated dose
Text: as §1, §2, §3, §4

in vivo [8] = details: mouse, in vivo, iv; remark: listed apart in the source
Text: as §1, §11, §12

[9] = iv q4dx4 (iv every four days for four times)
[10] = iv q7dx3 (iv every seven days for three times)
[11] = po q4dx4 (oral every four days for four times)
[12] = po q7dx3 (oral every seven days for three times)

Row | Structure (SMILES) | Tumor Inhibition % (murine mammary carcinoma; [9]) [%] | R.I. = Resistance Index = (IC50 LoVo/Dx)/(IC50 LoVo) (LoVo/Dx resistant cells; treatment for 4 hrs) | T/C % = median survival time of treated mice over median survival time of controls × 100 [1] [%] | T/C % = median survival time of treated mice over median survival time of controls × 100 [2] [%] | MTD [3, 10] [mg/kg] | Tumor Inhibition % [4, 10] [%] | IC50 (LoVo/Dx resistant cells; LoVo/DX, 4 h) [µg/mL] | IC50 (LoVo; 4 h) [ng/mL] | MTD (in vivo [6]) [mg/kg] | further results
1 | COc1cccc2c1C(=O)c1c(O)c3c(c(O)c1C2=O)C[C@@](O)(C(=O)CO)C[C@@H]3O[C@H]1C[C@H](N)[C@H](O)[C@H](C)O1 [Doxorubicin, doxorubicin] | 99 | 52.6 | 100 | 86 | 6 | 72 | – | – | – | O.D. = Optimal Dose: maximally tollerated dose (murine mammary carcinoma; [9]): 5.85 mg/kg; IC50 (P388 Leukemia (Schabel); sensitive P388 (Schabel), in vitro, treatment 1 hr): 0.0527 µg/mL (≈ 0.097 µM); IC50 (LoVo/Dx resistant cells; LoVo/Dx, in vitro, treatment for 4 hrs): 2.55 µg/mL (≈ 4.7 µM); IC50 (LoVo; in vitro, treatment for 4 hrs): 48.8 ng/mL (≈ 0.0898 µM); IC50 ([5]; P388/Dx (Schabel), in vitro, treatment 1 hr): 4 µg/mL (≈ 7.36 µM)
2 | COc1cccc2c1C(=O)c1c(O)c3c(c(O)c1C2=O)C[C@@](O)(C(=O)CO)C[C@@H]3O[C@H]1C[C@H](N2CCO[C@@H](OC)C2)[C@H](O)[C@H](C)O1 [Compound A5, 3'-deamino-3'-(2"(R)-methoxy-4"-morpholinyl)-doxorubicin] | – | 6.1 | – | 244 | – | – | 0.0401 (≈ 0.0623 µM) | 6.5 (≈ 0.0101 µM) | 0.13 | –
3 | COc1cccc2c1C(=O)c1c(O)c3c(c(O)c1C2=O)C[C@@](O)(C(=O)CO)C[C@@H]3O[C@H]1C[C@H](N2CCO[C@H](OC)C2)[C@H](O)[C@H](C)O1 [Compound A4, 3'-deamino-3'-(2"(S)-methoxy-4"-morpholinyl)-doxorubicin] | 94 | 3.6 | 153 | 250 | 0.05 | 98 | 0.0317 (≈ 0.0493 µM) | 8.7 (≈ 0.0135 µM) | 0.09 | MTD [7, 9]: 0.065 mg/kg; MTD [7, 11]: 0.1 mg/kg; Tumor Inhibition % (murine mammary carcinoma; [11]): 97%; IC50 (P388 Leukemia (Schabel); P388, 1 h): 0.0076 µg/mL (≈ 0.0118 µM); MTD (in vivo [8]): 0.09 mg/kg; MTD [3, 12]: 0.13 mg/kg; Tumor Inhibition % [4, 12]: 99%; IC50 ([5]; P388/DX, 1 h): 0.0243 µg/mL (≈ 0.0378 µM)
